The source of these data is publication PMC6121530, “Synthesis, Biological Evaluation and Molecular Docking of Novel Indole-Aminoquinazoline Hybrids for Anticancer Properties” (International Journal of Molecular Sciences, 2018).

This assay concerns the target T1, epidermal growth factor receptor tyrosine kinase (EGFR-TK) (Homo sapiens, UniProt P00533).
T1 construct: purified Epidermal Growth Factor Receptor (Sigma-Aldrich)
The experiment in a line: ELISA kinase inhibition assay with purified EGFR. It counts as biochemical. For orientation: In an ELISA, binding on a coated surface is turned into a signal by an enzyme label.

T1 sequence (P00533 25-1210): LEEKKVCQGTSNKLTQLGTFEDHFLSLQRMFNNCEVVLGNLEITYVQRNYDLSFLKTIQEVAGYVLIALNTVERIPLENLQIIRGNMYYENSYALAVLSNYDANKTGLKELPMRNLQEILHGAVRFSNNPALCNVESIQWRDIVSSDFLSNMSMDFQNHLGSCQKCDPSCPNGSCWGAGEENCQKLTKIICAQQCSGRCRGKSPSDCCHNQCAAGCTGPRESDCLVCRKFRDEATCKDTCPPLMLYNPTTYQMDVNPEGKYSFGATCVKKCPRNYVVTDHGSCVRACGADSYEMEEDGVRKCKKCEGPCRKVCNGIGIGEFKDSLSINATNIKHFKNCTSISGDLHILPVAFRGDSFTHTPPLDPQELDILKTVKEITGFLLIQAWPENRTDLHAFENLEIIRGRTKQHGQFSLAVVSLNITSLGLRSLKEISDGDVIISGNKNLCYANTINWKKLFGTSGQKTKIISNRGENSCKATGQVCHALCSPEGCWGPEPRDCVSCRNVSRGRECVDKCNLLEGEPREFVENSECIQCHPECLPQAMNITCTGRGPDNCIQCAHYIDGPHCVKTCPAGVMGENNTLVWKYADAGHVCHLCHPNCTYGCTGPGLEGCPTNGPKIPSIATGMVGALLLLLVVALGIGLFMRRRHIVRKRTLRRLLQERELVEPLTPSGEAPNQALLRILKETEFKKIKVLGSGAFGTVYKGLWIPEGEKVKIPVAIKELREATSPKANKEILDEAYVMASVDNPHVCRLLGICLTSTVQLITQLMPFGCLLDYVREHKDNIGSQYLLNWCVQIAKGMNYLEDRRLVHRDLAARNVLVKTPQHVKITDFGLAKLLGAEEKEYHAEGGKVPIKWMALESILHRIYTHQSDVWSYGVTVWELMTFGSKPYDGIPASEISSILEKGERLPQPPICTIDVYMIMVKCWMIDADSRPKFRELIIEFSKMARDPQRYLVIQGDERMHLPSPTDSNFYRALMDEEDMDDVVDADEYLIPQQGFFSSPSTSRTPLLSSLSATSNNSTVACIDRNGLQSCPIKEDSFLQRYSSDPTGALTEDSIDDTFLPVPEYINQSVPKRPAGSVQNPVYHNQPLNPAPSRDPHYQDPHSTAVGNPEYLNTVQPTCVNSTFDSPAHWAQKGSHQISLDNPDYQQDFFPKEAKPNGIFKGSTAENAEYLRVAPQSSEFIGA

Take `Fc1ccc(-c2nc(Nc3cc(Br)cc4cc(-c5ccc(F)cc5)[nH]c34)c3ccccc3n2)cc1` [4f, N-(5-Bromo-2-(4-fluorophenyl)-1H-indol-7-yl)-2-(4-fluorophenyl)quinazolin-4-amine]: the IC50 (usually the point on the concentration scale where inhibition reaches its midpoint) was 52.5 nM.
